Laboratory results as given in ChEMBL document CHEMBL1201862, “PubChem BioAssay data set” (2004).
Calls of active or inactive are those of the source.

Experiments:
[1] = molecular target: Steroidogenic factor 1 (Homo sapiens, UniProt Q13285); assay: Counterscreen for inverse agonists of the liver receptor homolog-1 (LRH-1; NR5A2): Luminescence-based cell-based high throughput dose response assay to identify inverse agonists of the Steroidogenic Factor 1 Nuclear Receptor (SF1; NR5A1).; format: functional
Chain of Steroidogenic factor 1 (Q13285 whole entry): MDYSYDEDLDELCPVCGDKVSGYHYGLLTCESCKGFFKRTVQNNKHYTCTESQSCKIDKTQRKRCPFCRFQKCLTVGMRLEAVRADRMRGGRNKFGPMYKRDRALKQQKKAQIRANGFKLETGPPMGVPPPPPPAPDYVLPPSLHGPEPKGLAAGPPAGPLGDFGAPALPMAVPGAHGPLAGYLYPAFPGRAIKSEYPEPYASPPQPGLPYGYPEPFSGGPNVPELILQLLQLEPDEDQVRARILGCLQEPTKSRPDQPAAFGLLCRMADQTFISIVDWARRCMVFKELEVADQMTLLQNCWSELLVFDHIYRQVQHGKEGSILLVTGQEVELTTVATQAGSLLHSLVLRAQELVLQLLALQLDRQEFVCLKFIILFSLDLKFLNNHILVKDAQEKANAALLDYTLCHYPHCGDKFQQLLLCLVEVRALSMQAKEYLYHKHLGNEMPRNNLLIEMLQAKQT

[2] = molecular target: Nuclear receptor subfamily 5 group A member 2 (Homo sapiens, UniProt O00482); format: functional, cell-based;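 also: HEK293T cells transfected with LRH-1 and a StAR promoter luciferase reporter; potency for inhibitors that lower LRH-1 driven reporter light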
Chain of Nuclear receptor subfamily 5 group A member 2 (O00482 whole entry): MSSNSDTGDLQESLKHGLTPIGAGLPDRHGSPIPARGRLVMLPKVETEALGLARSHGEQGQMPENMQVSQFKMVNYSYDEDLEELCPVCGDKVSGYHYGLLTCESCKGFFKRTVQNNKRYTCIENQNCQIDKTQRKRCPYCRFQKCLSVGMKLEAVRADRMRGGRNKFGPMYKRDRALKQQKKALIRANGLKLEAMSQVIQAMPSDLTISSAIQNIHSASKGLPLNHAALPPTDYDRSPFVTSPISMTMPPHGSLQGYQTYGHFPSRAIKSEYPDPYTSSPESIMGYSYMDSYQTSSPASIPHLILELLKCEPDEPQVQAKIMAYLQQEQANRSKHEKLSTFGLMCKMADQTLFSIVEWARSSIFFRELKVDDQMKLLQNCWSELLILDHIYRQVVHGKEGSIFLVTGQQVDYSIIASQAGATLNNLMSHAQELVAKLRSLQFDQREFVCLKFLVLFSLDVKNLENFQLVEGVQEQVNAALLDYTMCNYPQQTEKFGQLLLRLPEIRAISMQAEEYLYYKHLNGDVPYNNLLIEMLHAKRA

[3] = StAR promoter reporter inhibition counter-screen, dose response, counter-screen for LRH-1 inverse agonist project, cell-based, luminescence, luciferase reporter (AID 651969); format: functional
[4] = molecular target: T1, Long-chain-fatty-acid--AMP ligase FadD28 (Mycobacterium tuberculosis, UniProt P9WQ59); assay: Fluorescence polarization aasay to screen for inhibitors that compete for the binding of FadD28 to a bisubstrate Measured in Biochemical System Using Plate Reader - 2147-01_Inhibitor_Dose_CherryPick_Activity.; format: functional, Mycobacterium tuberculosis H37Rv
T1 sequence (P9WQ59 whole entry): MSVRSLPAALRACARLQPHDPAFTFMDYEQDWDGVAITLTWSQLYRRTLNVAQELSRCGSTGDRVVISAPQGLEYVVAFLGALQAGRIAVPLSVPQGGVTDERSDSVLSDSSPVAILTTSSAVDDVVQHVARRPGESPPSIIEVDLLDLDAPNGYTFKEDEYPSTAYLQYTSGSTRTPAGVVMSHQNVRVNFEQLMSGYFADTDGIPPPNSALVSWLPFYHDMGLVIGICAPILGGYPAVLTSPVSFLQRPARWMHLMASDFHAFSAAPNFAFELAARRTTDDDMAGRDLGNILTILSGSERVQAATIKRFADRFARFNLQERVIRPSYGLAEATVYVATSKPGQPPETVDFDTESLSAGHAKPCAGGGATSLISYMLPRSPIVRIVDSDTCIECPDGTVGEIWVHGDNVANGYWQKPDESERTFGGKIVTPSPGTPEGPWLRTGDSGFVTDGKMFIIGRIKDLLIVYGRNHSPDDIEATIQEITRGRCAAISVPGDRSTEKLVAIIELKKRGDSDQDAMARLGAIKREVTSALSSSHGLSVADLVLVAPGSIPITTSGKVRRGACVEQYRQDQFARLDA

[5] = inhibitors of HIV Env-driven cell fusion, dose response, cherry-pick (AID 652057); format: functional, cell-based
[6] = off-target signal loss in HeLa-CEM21 co-culture – HeLa F-luc CTL cells, cherry-picked, counter-screen for HIV-1 Env fusion inhibitor project, dose response (AID 652040); format: functional, cell-based;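 also: potency for signal decrease marking cytotoxic or nonspecific inhibition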
[7] = ZM109 Env clade C HIV-1 fusion inhibitors, dose response, HeLa effector, CEM target cells, luciferase, cherry-pick (AID 652058); format: functional, cell-based
[8] = inhibitors of clade B AD8 Env fusion, dose response, cell-based, cherry-pick (AID 652062); format: functional;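 also: luciferase signal from cell-cell fusion driven by HIV-1 clade B AD8 Env; potency is for inhibitors of fusion seen as a drop in luminescence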
[9] = Counterscreen for inhibitors of Trypanosoma brucei methionyl tRNA synthetase (MetRS): Luminescence-based cell-based high throughput dose response assay to identify compounds that are cytotoxic to Jurkat human T lymphocyte cells.; format: functional
[10] = molecular target: T2, Methionyl-tRNA synthetase, putative (Trypanosoma brucei brucei, UniProt Q38C91); format: functional, Trypanosoma brucei brucei strain 927/4 GUTat10.1
T2 sequence (Q38C91 whole entry): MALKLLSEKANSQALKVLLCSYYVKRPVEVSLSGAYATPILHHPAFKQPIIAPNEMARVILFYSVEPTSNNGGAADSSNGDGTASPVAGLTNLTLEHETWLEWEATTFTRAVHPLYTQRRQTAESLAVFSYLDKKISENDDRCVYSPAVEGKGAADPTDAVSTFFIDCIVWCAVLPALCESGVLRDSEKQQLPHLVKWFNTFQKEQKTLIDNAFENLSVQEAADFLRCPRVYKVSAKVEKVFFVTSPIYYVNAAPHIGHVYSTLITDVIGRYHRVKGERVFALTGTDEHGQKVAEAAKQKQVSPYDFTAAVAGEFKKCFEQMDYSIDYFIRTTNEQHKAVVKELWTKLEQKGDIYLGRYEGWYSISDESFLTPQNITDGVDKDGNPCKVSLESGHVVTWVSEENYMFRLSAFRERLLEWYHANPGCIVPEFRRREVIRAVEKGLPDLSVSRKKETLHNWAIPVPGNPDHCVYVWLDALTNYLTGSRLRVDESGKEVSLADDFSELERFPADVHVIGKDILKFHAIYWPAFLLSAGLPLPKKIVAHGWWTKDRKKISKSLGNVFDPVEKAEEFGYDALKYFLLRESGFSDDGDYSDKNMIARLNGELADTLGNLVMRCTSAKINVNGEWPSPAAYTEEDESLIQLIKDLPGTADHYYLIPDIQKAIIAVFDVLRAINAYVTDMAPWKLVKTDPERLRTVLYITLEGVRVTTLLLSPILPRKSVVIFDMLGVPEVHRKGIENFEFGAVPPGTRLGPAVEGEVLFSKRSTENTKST

[11] = molecular target: T2, Methionyl-tRNA synthetase, putative; format: functional, Trypanosoma brucei brucei strain 927/4 GUTat10.1; remark: listed apart in the source
[12] = molecular target: T3, Corticotropin-releasing factor receptor 2/Corticotropin-releasing factor-binding protein (Homo sapiens, UniProt P24387+Q13324); assay: activators of CRF receptor 2 with binding protein – uHTS hits, confirmation (AID 602473); format: functional; conditions: read-out: EC50_Mean
T3 sequence (Q13324 whole entry): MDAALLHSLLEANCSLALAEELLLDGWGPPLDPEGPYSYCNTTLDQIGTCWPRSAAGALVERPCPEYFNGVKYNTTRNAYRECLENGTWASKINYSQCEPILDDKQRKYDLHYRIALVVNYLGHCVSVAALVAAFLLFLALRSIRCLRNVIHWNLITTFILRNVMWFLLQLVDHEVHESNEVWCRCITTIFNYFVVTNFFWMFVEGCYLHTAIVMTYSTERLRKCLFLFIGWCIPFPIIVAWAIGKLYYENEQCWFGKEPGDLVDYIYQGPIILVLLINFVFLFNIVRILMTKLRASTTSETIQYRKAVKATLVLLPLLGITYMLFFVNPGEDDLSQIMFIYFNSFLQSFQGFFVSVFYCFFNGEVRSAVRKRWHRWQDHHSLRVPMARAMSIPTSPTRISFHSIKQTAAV
T3 sequence (P24387 whole entry): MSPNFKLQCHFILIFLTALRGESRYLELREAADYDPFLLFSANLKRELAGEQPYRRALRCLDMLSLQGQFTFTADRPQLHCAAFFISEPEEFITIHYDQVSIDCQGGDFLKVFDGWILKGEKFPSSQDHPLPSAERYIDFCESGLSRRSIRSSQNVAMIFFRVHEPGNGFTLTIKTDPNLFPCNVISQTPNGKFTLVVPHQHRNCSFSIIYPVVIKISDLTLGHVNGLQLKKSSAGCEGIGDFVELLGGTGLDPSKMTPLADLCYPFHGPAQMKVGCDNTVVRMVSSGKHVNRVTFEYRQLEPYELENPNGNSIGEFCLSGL

[13] = CRF-BP/CRF-R2 complex antagonists, dose response, cell-based, uHTS hits, 384-well (AID 651639); format: functional, Homo sapiens; conditions: read-out: IC50_Mean
[14] = molecular target: T4, Leucine aminopeptidase (Plasmodium falciparum 3D7, UniProt Q8IL11); assay: P. falciparum M17LAP inhibitors, primary screen, biochemical, fluorogenic H-Leu-NHMec substrate, 1536-well (AID 1619); format: functional
T4 sequence (Q8IL11 whole entry): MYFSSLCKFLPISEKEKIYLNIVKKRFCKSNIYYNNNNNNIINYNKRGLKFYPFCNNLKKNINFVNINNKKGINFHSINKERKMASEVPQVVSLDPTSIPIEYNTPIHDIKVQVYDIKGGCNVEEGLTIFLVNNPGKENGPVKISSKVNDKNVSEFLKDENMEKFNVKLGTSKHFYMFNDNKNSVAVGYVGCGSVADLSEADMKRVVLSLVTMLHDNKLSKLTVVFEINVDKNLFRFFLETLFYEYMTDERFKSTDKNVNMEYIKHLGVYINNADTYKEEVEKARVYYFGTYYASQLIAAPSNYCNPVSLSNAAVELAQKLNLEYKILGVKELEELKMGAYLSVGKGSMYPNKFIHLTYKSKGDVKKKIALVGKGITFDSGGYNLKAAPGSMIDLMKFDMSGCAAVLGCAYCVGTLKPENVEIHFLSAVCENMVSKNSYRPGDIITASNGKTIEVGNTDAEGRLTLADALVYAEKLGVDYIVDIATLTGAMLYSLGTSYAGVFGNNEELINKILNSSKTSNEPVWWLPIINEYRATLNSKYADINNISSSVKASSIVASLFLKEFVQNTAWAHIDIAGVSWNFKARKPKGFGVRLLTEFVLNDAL

[15] = molecular target: T5, Aminopeptidase N (Plasmodium falciparum FcB1/Columbia, UniProt O96935); assay: P. falciparum M1AAP inhibitors, biochemical, fluorogenic H-Leu-NHMec substrate, 1536-well (AID 1445); parameters: species or system Plasmodium falciparum 3D7, 3D7
T5 sequence (O96935 whole entry): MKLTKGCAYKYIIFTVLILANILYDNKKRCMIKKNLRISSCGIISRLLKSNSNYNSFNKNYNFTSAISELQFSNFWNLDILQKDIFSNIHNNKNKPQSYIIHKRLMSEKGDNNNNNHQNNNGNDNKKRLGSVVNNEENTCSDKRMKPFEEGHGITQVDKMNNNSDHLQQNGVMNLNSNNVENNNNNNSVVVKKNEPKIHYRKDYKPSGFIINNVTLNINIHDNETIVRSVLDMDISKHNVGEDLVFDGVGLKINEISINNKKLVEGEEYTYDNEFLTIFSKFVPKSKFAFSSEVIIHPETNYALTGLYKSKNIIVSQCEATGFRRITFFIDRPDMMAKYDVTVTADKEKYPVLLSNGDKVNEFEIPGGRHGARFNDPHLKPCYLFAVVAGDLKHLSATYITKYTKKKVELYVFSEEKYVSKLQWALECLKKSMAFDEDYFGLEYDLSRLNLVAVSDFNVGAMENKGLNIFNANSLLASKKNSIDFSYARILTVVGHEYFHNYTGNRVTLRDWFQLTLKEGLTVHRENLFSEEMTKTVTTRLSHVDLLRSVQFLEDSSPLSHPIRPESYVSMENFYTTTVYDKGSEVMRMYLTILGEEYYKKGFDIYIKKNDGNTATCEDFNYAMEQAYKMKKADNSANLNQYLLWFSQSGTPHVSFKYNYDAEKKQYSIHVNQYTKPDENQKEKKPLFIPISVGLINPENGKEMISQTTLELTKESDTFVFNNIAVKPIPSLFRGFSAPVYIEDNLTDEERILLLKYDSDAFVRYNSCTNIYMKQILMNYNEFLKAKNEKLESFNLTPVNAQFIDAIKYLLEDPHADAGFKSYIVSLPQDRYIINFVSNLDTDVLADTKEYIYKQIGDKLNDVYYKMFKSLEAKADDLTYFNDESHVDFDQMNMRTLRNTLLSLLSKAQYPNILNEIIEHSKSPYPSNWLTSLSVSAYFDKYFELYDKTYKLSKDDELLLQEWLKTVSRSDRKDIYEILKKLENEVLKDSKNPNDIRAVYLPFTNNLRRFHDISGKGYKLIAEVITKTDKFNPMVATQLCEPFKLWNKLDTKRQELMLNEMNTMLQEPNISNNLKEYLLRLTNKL

[16] = molecular target: T3, Corticotropin-releasing factor receptor 2/Corticotropin-releasing factor-binding protein; assay: Dose Response confirmation of uHTS hits for small molecule antagonists of the CRF-binding protein and CRF-R2 receptor complex.; format: functional; conditions: read-out: IC50_Mean
[17] = molecular target: T6, Calpain-2 catalytic subunit (Sus scrofa, UniProt P43367); assay: pig calpain II inhibitor potency, dose response, biochemical, fluorogenic peptide substrate (AID 1420); format: functional
T6 sequence (P43367 whole entry): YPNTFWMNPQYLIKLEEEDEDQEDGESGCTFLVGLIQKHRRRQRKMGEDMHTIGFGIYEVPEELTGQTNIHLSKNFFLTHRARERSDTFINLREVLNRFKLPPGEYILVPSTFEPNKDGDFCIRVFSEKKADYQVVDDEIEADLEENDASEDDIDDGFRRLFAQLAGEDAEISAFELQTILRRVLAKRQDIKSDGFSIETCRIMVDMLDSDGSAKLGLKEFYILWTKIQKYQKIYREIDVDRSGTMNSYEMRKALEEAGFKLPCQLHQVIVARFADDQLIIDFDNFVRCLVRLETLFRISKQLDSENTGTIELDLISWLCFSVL

Structure (SMILES): CS(=O)(=O)c1ccc(-c2cc(NC=O)c3ncc(-c4ccc(F)cc4)n3c2)cc1
- IC50 [1]: 2.73 µM (active)
- IC50 [2]: 4.22 µM (active)
- IC50 [3]: 12.4 µM (inactive)

Structure (SMILES): O=C(CN1C(=O)NC2(CCOc3ccccc32)C1=O)c1ccc(Cl)s1 (stereo unspecified)
- AC50 [4]: > 100 µM (inactive)

Structure (SMILES): Cc1ccccc1C(=O)NC1CCN(CC(=O)Nc2ccc(Br)cc2)CC1
- IC50 [1]: 3.32 µM (active)
- IC50 [2]: 35.9 µM (inactive)
- IC50 [3]: 35.9 µM (inactive)

Structure (SMILES): COc1ccc(Nc2c(CCc3ccccc3)nc3nc(C)cc(C)n23)cc1
- AC50 [5]: 5.27 µM (active)
- AC50 [6]: 4.03 µM (active)
- AC50 [7]: 6.28 µM (active)
- AC50 [8]: 4.63 µM (active)

Structure (SMILES): COc1ccc(CCNC(=O)CSc2ccc(NC(C)=O)cc2)cc1OC
- IC50 [1]: 2.27 µM (active)
- IC50 [2]: 17.4 µM (inactive)
- IC50 [3]: 35.9 µM (inactive)

Structure (SMILES): O=C(NNC(=O)c1cc(-c2cccnc2)nc2ccccc12)Nc1ccc(Cl)cc1
- IC50 [9]: 63 µM (inactive)
- IC50 [10]: 25.8 µM (inactive)
- IC50 [11]: 39.5 µM (inactive)

Structure (SMILES): COc1ccc(/C=C2\SC(NS(=O)(=O)c3cccs3)=NC2=O)cc1
- EC50 [12]: > 53 µM (inactive)
- IC50 [13]: > 20 µM (inactive)
- IC50 [14]: 31 µM (active)
- IC50 [15]: 41.1 µM (active)
- IC50 [16]: 36.5 µM (active)

Structure (SMILES): O=C(OCC(=O)c1c[nH]c2ccccc12)c1ccc(F)c(S(=O)(=O)N2CCOCC2)c1
- AC50 [4]: 60.2 µM (active)

Structure (SMILES): O=C(NCc1ccco1)c1cccc(Nc2nc3cc(Br)ccc3[nH]2)c1
- IC50 [9]: 83.3 µM (inactive)

Structure (SMILES): O=C(c1ccco1)N(Cc1cccc([N+](=O)[O-])c1)c1ccc(Br)cc1
- IC50 [17]: 12 µM (not active)
- EC50 [12]: > 53 µM (inactive)
- IC50 [13]: > 20 µM (inactive)
- IC50 [16]: < 0.368 µM (active)

Structure (SMILES): O=C(NCc1ccco1)c1cccc(Nc2nc3ccc(Br)cc3[nH]2)c1
- IC50 [17]: 11.9 µM (not active)
- IC50 [10]: 13.5 µM (inactive)
- IC50 [11]: 22.3 µM (inactive)
